In patent publication US20050136444A1 (priority 2003, published 2005):
Entries after “also recorded” stand apart in the source; their conditions may differ. Counter-ions that a name gives are not always drawn. Like-named read-outs stand apart in the source and are kept apart here.

How the values were obtained:
[1] = system: Compound 2616-induced Tactile Allodynia; experiment: Compound 2616-induced Tactile Allodynia in naive rats, effect of dPQR; type: in vivo, rat; conditions: 10 mg/kg, i.p., 75 min post-injection, vs vehicle; Hydrochloride
Method: To confirm that the pronociceptive actions of Compound 2616 were mediated via NPFF1 receptors we performed a pharmacological experiment where we administered dPQR (Dansyl-Pro-Gln-Arg, a reported NPFF antagonist, custom synthesized by Phoenix Pharmaceuticals) to rats treated with Compound 2616. Baseline paw withdrawal thresholds were obtained in naive rats. Following testing, the rats received either vehicle or Compound 2616 (10 mg/kg, i.p.). […] Half of the rats that received Compound 2616 were then injected with either vehicle or dPQR (30 mg/kg, i.p.).

[2] = system: Hot Plate Test; experiment: 52° C. hot plate test after systemic administration; type: in vivo, rat; conditions: rats, 10 mg/kg i.p., vs vehicle
Method: Rats were injected with either vehicle or 10 mg/kg Compound 2616 (i.p.) and then assessed for possible changes in sensitivity to a noxious thermal stimulus using the 52° C. hot plate test.

[3] = molecular target: NPFF1 (Homo sapiens, UniProt Q9GZQ6); experiment: cAMP assay in transiently transfected HEK-T cells, NPFF1; type: cell-based; parameters: expressed in transfected cells; conditions: for Emax: HEK-T cell, read-out: NPFF1 % Efficacy Mean; for EC50: read-out: NPFF1 pEC50 Mean (converted)
Sequence of NPFF1 (Q9GZQ6 whole entry, species assumed): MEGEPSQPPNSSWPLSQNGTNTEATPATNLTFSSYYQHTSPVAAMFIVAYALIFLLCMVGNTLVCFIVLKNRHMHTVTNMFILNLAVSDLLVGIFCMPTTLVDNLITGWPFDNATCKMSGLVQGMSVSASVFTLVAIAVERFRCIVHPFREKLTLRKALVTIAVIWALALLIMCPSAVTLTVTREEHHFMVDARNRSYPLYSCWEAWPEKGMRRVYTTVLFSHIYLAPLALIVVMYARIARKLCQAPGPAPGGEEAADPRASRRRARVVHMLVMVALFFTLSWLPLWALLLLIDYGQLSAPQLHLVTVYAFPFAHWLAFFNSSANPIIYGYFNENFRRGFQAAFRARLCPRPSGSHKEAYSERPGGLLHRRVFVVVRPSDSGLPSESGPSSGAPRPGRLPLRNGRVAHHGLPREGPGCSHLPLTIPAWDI
Description: An assay was established for measuring cAMP in transiently transfected cells that takes advantage of the fact that most cells that are transfected with one gene, can be simultaneously transfected with other genes. Thus, the NPFF1 and NPFF2 receptors were transfected along with a Gs-coupled receptor (EP2) at a ratio of 5:1. […] Improvement was also detected in the sensitivity of the assay in some cases when cells are co-transfected with AC5 at ½-⅕ of the amount of DNA of the Gi-coupled receptor studied.
This set up was routinely used for the transfection of HEK-T cells with NPFF1 and NPFF2 receptors. After 48 hours the cAMP assay was set up using DiscoveRx assay protocol with transfected cells in suspension in the presence of varying concentrations of the NPFF ligands and 300 nM of […] in white bottom plates. Cells were incubated for 15 minutes at 37° C. At the end of incubation, cells were lysed and the remainder of the assay performed as per DiscoveRx protocol.
Cells were incubated for another 15 minutes at 37° C. following which the cells were lysed and processed as per kit protocol.

[4] = system: Carrageenan-induced Thermal Hyperalgesia; experiment: Carrageenan-induced Thermal Hyperalgesia (hot plate); type: in vivo, rat; conditions: for hot plate latencies in vehicle-treated (no carrageenan) rats: 10 mg/kg; for calculated A50, reversal of thermal hyperalgesia: 95% CI; for reversal of carrageenan-induced thermal hyperalgesia: rats, 1, 3 and 10 mg/kg, hot plate
Method: Naive male Sprague-Dawley rats (175-200 g) were assessed for their responsiveness to a noxious thermal stimulus. Response latencies were measured using the hot plate test. Rats were placed in a plexiglass enclosure on a thermostatically controlled metal plate maintained at 52° C. […] Following testing, an animal model of acute inflammatory pain was created by injecting 100 μl of 2% λ-carrageenan ion to a hind paw. Three hours after carrageenan injection, hot plate latencies were again obtained. A significant reduction in the hot plate latency was interpreted as the presence of thermal hyperalgesia. Rats were injected with compound or vehicle and then tested at various time-points following drug administration. Data were converted to % Maximum Possible Effect (% MPE) by the formula, % MPE=((test-post-inflammatory)/(naive-post-inflammatory))*100, where the test score is the hot plate latency obtained after compound administration, the post-inflammatory score is the average response obtained 3 hr post-carrageenan, and the naive score is the average response obtained prior to manipulation. Additionally, paw thickness was measured (with a micrometer) following testing in order to quantify edema. Although none of the compounds tested reversed carrageenan-induced edema formation (data not shown), these compounds produced a dose-related reversal of carrageenan-induced thermal hyperalgesia.
Rats were injected (i.paw.) with 100 μl of 2% carrageenan or vehicle (dH2O) in order to produce a state of acute inflammatory pain. […] Rats were then treated with various doses of Compound 1045 (1, 3 and 10 mg/kg, i.p.) and hot plate latencies were tested across a period of 3 hours.
Rats were injected (i.paw.) with 100 μl of 2% carrageenan or vehicle (dH2O) in order to produce a state of acute inflammatory pain.
Rats were injected (i.paw.) with 100 μl of 2% carrageenan or vehicle (dH2O) in order to produce a state of acute inflammatory pain. […] Rats were then treated with various doses of Compound 3099 (1, 3 and 10 mg/kg, i.p.) and hot plate latencies were tested across a period of 3 hours.

[5] = system: formalin-induced flinching; experiment: Formalin Flinching; type: in vivo, rat; conditions: rats, 10 mg/kg i.p. 15 min prior to formalin
Method: Naive male Sprague-Dawley rats (175-200 g) were injected with a test compound followed by an injection of 50 μl of a 5.0% formalin solution into the dorsal surface of a hind paw and then placed in individual plastic cages for observation. The number of nociceptive responses (i.e., paw flinches/licks/bites) was counted for a period of 60 min following formalin injection. […] Compounds were administered 15 min prior to formalin injection. The results are depicted in FIG. 4.
(§1) A model of tonic pain was created in rats by administering an injection of 5.0% formalin solution (50 μl) into the dorsal surface of a hind paw and then placing the rat in an individual plastic cage for observation. Paw flinches/licks/bites are counted for a period of 60 min. Rats received either vehicle or Compound 3099 (10 mg/kg, i.p.) 15 min prior to the formalin injection. […] This finding is consistent with our previous data.
as §1, with “min.” for “min. Rats received either vehicle or Compound 3099 (10 mg/kg, i.p.) 15 min prior to the formalin injection.”

[6] = system: 52° C. Water Tail Flick Test; experiment: 52° C. Water Tail Flick Test, intrathecal administration; type: in vivo, rat; conditions: rats, morphine 3, 10, 30 μg, NPFF 100 μg, 1045 11.6 or 115.5 μg, 1DME 5.6, 55.6 or 556.0 μg
Method: Rats were implanted with chronically indwelling intrathecal catheters (PE-10; 7.5 cm) allowing for the delivery of compounds to the lumbar spinal cord. As a positive control, rats were treated with various doses of morphine (3, 10 and 30 μg).
Rats were implanted with chronically indwelling intrathecal catheters (PE-10; 7.5 cm) allowing for the delivery of compounds to the lumbar spinal cord.
Rats were implanted with chronically indwelling intrathecal catheters (PE-10; 7.5 cm) allowing for the delivery of compounds to the lumbar spinal cord. In order to rule out the possibility that the lack of antinociception produced by NPFF was due to the degradation of the peptide we administered 1DME (a stable NPFF analog).

[7] = cAMP data, Table 2, HEK-T cells

Row | Structure (SMILES) | paw withdrawal thresholds / tactile sensitivity of naive rats [1] | hot plate latency (thermal hyperalgesia) [2] | Emax [3] [%] | EC50 [3, 7] [µM] | hot plate latencies in vehicle-treated (no carrageenan) rats [4] | time of peak effect after administration ([4]; carrageenan-treated rats, i.p.) [min] | calculated A50, reversal of thermal hyperalgesia ([4]; carrageenan-treated rats, i.p.) | reversal of carrageenan-induced thermal hyperalgesia ([4]; i.p.) | Emax [3, 7] [%] | formalin-induced flinching, phase I ([5]; 0-10 min post-formalin) | inhibition of formalin-induced flinching, phase II ([5]; 15-60 min post-formalin) [% inhibition] | antinociception in 52° C. water tail flick test [6] | maximum efficacy, reversal of thermal hyperalgesia ([4]; carrageenan-treated rats, i.p.) [%] | carrageenan-induced edema formation in the hind paw ([4]; rats, paw thickness)
1 | NC(N)=NN=Cc1ccc(-c2ccccc2C(F)(F)F)o1 (racemic) [Compound 2616, 1-[(5-(2-(Trifluoromethyl)phenyl)-furan-2-yl)-methyleneamino]guanidine Hydrochloride] | markedly decreased; also recorded: resulted in an increased sensitivity to innocuous tactile stimulation | produced a significant reduction in the hot plate latency | 93 | 1.26 | – | – | – | – | – | – | – | – | – | –
2 | Cl.N=C(N)N/N=C/c1ccc(Br)c(Br)c1 [Compound 3093, 1-(3,4-Dibromobenzylideneamino)guanidine Hydrochloride] | – | – | – | 15.8 | did not significantly alter the hot plate latencies | 30 to 60 | 1.6 mg | dose-related reversal of thermal hyperalgesia | 23 | inactive | ~62.1 | – | – | –
3 | NC(N)=N/N=C/c1ccc(Cl)c(Cl)c1 [Compound 1045, 1-(3,4-Dichlorobenzylideneamino)guanidine Hydrochloride] | – | – | – | – | did not significantly alter sensitivity to noxious thermal stimulation | – | 7.8 mg/kg | dose-related reversal of thermal hyperalgesia | – | – | – | failed to elicit antinociception | 57.6 | did not significantly alter edema formation
